The values that follow come from US10800790B2, “Sesquiterpenoid STAT3 inhibitors” (University of Hawaii, priority 2013, dated 2020).

For test [1], the system named is U251MG glioblastoma cells. Description: CyQuant cell viability/proliferation assay, U251MG. On the set-up: key to Activity against U251: +, active; −, no activity; +/−, poorly active. It is filed as cell-based, human. The conditions noted are these: for Activity against U251: Table 1 grade, Table 1/FIG. 2 compound numbering; for Inhibitory potency compared with 22 (CyQuant): 72-h treatment, FIG. 10, synthetic derivatives of 22. Here is the method: The cell viability assay was performed as previously reported (Zhang X, et al. (2010)). Briefly, a 10 millimolar concentration stock solution in dimethylsulfoxide (DMSO) of the tested molecule was first prepared. Next, the stock solution was diluted down to various working solutions in water. Thus, a formulation of the tested compound in a DMSO/water mixture was used to test for cell viability. (A novel small-molecule disrupts STAT3 SH2 domainphosphotyrosine interactions and STAT3-dependent tumor processes, Biochem Pharmacol 79:1398-1409; Zhao W, Jaganathan S, & Turkson J (2010), A cell-permeable STAT3 SH2 domain mimetic inhibits STAT3 activation and induces antitumor cell effects in vitro. J Biol Chem. 285:35855-35865). Cells (U251MG, MDA-MB-231 or NIH3T3) were obtained from ATCC (Manassas, Va.) and were cultured in 96-well plates at 2,000 cells per well for 24 h and were treated with compounds (5 micromolar concentration) for 72 h. Cell viabilty was determined using CyQuant assay, according to the manufacturer's (Invitrogen, CA, USA) instructions. Relative viability of the treated cells was normalized to the DMSO-treated control cells.

In test [2] the test system is pY705STAT3 in U251MG or MDA-MB-231 cells. Nature of the test: Immunoblotting of pY705STAT3 in treated tumor cells. Particulars: 5 micromolar, 0-24 h; U251MG or MDA-MB-231; Table 1/FIG. 2 numbering.

For the compound `CC=C(C)C(=O)OC1CC(C)C2(OC)CCC(C)(C=C3OC(=O)C(CO)=C31)O2` (centres unmarked) [Compound 17], the “Activity against U251” value in test [1] is “−”. As to `CC(=CCO)C(=O)OC1CC(C)C2(O)CCC(C)(C=C3OC(=O)C(CO)=C31)O2` (centres unmarked) [Compound 21], in test [1], the “Activity against U251” value was “−”.

Consider `CCC(C)C(=O)OCC1=C2/C(=C\C3(C)CCC(O)(O3)[C@H](C)C[C@@H]2O)OC1=O` (stereo partly drawn) [zmm-1-18, ((4S,6R,E)-4,7-dihydroxy-6,10-dimethyl-2-oxo-2,4,5,6,7,8,9,10-octahydro-7,10-epoxycyclodeca[b]furan-3-yl)methyl 2-methylbutanoate], for which the “Effect on pY705STAT3 / STAT3 activity (immunoblot), in words” value (from here on “Effect on pY705STAT3 / STAT3 activity”) in test [2] is reported as “showed little effects on pY705STAT3”. For the compound `C[C@@H]1C[C@H](O)C2=C(COC(=O)C=Cc3ccccc3)C(=O)O/C2=C/C2(C)CCC1(O)O2` (stereo partly drawn) [zmm-1-19, ((4S,6R,E)-4,7-dihydroxy-6,10-dimethyl-2-oxo-2,4,5,6,7,8,9,10-octahydro-7,10-epoxycyclodeca[b]furan-3-yl)methyl cinnamate], the “Inhibitory potency compared with 22 (CyQuant)” value in test [1] was “retained the inhibitory potency as 22”. The “Effect on pY705STAT3 / STAT3 activity” value in test [2] was “inhibited pY705STAT3”. Turning to `CC(C)=CCCC(C)=CC(=O)OCC1=C2/C(=C\C3(C)CCC(O)(O3)[C@H](C)C[C@@H]2O)OC1=O` (stereo partly drawn) [zmm-1-20, ((4S,6R,E)-4,7-dihydroxy-6,10-dimethyl-2-oxo-2,4,5,6,7,8,9,10-octahydro-7,10-epoxycyclodeca[b]furan-3-yl)methyl 3,7-dimethylocta-2,6-dienoate], the “Inhibitory potency compared with 22 (CyQuant)” value in test [1] is reported as “retained the inhibitory potency as 22”. In test [2], the “Effect on pY705STAT3 / STAT3 activity” value was “inhibited pY705STAT3”. For `CC(C)=CC(=O)OCC1=C2/C(=C\C3(C)CCC(O)(O3)[C@H](C)C[C@@H]2O)OC1=O` (stereo partly drawn) [zmm-1-21, ((4S,6R,E)-4,7-dihydroxy-6,10-dimethyl-2-oxo-2,4,5,6,7,8,9,10-octahydro-7,10-epoxycyclodeca[b]furan-3-yl)methyl 3-methyl but-2-enoate], the “Effect on pY705STAT3 / STAT3 activity” value in test [2] was “showed little effects on pY705STAT3”.

In the case of `CC(C)=CCCC(C)CC(=O)OCC1=C2/C(=C\C3(C)CCC(O)(O3)[C@H](C)C[C@@H]2O)OC1=O` (stereo partly drawn) [zmm-1-22, ((4S,6R,E)-4,7-dihydroxy-6,10-dimethyl-2-oxo-2,4,5,6,7,8,9,10-octahydro-7,10-epoxycyclodeca[b]furan-3-yl)methyl 3,7-dimethyloct-6-enoate], the “Inhibitory potency compared with 22 (CyQuant)” value in test [1] is recorded as “retained the inhibitory potency as 22”. In addition, the “Effect on pY705STAT3 / STAT3 activity” value in test [2] is reported as “inhibited pY705STAT3”. For the compound `C/C=C(\C)C(=O)O[C@H]1C[C@@H](C)C2(OC)CCC(C)(/C=C3/OC(=O)C(COC(=O)C=Cc4ccccc4)=C31)O2` (stereo partly drawn) [zmm-1-72, (4S,6R,E)-3-((cinnamoyloxy)methyl)-7-methoxy-6,10-dimethyl-2-oxo-2,4,5,6,7,8,9,10-octahydro-7,10-epoxycyclodeca[b]furan-4-yl(E)-2-methylbut-2-enoate], the “Inhibitory potency compared with 22 (CyQuant)” value in test [1] is listed as “retained the inhibitory potency as 22”. For the compound `C[C@@H]1C[C@H](O)C2=C(COC(=O)/C=C/c3ccc(C(F)(F)F)cc3)C(=O)O/C2=C/C2(C)CCC1(O)O2` (some centres unmarked) [zmm-1-79], the “Inhibitory potency compared with 22 (CyQuant)” value in test [1] is on record as “retained the inhibitory potency as 22”. For the compound `CCCC(CCC)C(=O)OCC1=C2/C(=C\C3(C)CCC(O)(O3)[C@H](C)C[C@@H]2O)OC1=O` (some centres unmarked) [zmm-1-80], the “Inhibitory potency compared with 22 (CyQuant)” value in test [1] is listed as “retained the inhibitory potency as 22”. As for `C[C@@H]1C[C@H](O)C2=C(COC(=O)CCc3ccccc3)C(=O)O/C2=C/C2(C)CCC1(O)O2` (stereo partly drawn) [zmm-1-82, ((4S,6R,E)-4,7-dihydroxy-6,10-dimethyl-2-oxo-2,4,5,6,7,8,9,10-octahydro-7,10-epoxycyclodeca[b]furan-3-yl)methyl 3-phenylpropanoate], the “Inhibitory potency compared with 22 (CyQuant)” value in test [1] is reported as “retained the inhibitory potency as 22”.
